We go through four compounds from patent publication US9241487B2, “Pyrimidine derivatives and use thereof as pesticides” (BAYER INTELLECTUAL PROPERTY GMBH, priority 2010, dated 2016).

What all share (type): in vivo
One assay relates to Leptosphaeria nodorum. As to the kind of experiment: Leptosphaeria nodorum test (wheat)/protective. The settings on record: Parastagonospora nodorum, wheat plants, protective spray, evaluation 7-9 days after inoculation, read-out: Efficacy (%). As for the experimental part: Leptosphaeria nodorum Test (Wheat)/Protective
Solvent: 49 parts by weight of N,N-dimethylformamide
(§1) Emulsifier: 1 part by weight of alkylaryl polyglycol ether
To produce a suitable preparation of active compound, 1 part by weight of active compound is mixed with the stated amounts of solvent and emulsifier, and the concentrate is diluted with water to the desired concentration. To test for protective activity, young wheat plants are sprayed with the preparation of active compound at the stated application rate. 1 day after the treatment, the plants are inoculated with an aqueous spore suspension of Leptosphaeria nodorum and then remain at 100% relative atmospheric humidity and 22° C. for 48 h. The plants are then placed in a greenhouse at 90% relative atmospheric humidity and a temperature of 22° C. Evaluation is carried out 7-9 days after the inoculation. 0% means an efficacy which corresponds to that of the control, whereas an efficacy of 100% means that no infection is observed. In this test, the following compounds according to the invention show, at an active compound concentration of 500 ppm, an efficacy of 70% or more: […]

In another assay the test system is Puccinia triticina. As to the kind of experiment: Puccinia triticina test (wheat)/protective. The note with it: 192 h, protective spray, evaluation 8 days after inoculation, read-out: Efficacy (%). On the procedure: Puccinia triticina Test (Wheat)/Protective
(§2) Solvent: 49 parts by weight of N,N-dimethylacetamide
as §1
To produce a suitable preparation of active compound, 1 part by weight of active compound is mixed with the stated amounts of solvent and emulsifier, and the concentrate is diluted with water to the desired concentration. To test for protective activity, young plants are sprayed with the preparation of active compound at the stated application rate. After the spray coating has dried on, the plants are sprayed with spores with a spore suspension of Puccinia triticina. The plants remain in an incubation cabin at 20° C. and 100% relative atmospheric humidity for 48 hours. The plants are placed in a greenhouse at a temperature of about 20° C. and a relative atmospheric humidity of about 80%. Evaluation follows 8 days after the inoculation. 0% means an efficacy which corresponds to that of the control, whereas an efficacy of 100% means that no infection is observed.
(§3) In this test, the following compounds according to the invention show, at an active compound concentration of 500 ppm, an efficacy of 70% or more: […]

Assay [1] deals with Blumeria graminis fsp. hordei. As to the kind of experiment: Blumeria graminis test (barley)/protective. The settings on record: 168 h, protective spray, evaluation 7 days after inoculation, read-out: Efficacy (%). On the procedure:
Blumeria graminis Test (Barley)/Protective
as §2, §1
To produce a suitable preparation of active compound, 1 part by weight of active compound is mixed with the stated amounts of solvent and emulsifier, and the concentrate is diluted with water to the desired concentration. To test for protective activity, young plants are sprayed with the preparation of active compound at the stated application rate. After the spray coating has dried on, the plants are dusted with spores of Blumeria graminis fsp. hordei. The plants are placed in a greenhouse at a temperature of about 18° C. and a relative air humidity of about 80% to promote the development of mildew pustules. Evaluation follows 7 days after the inoculation. 0% means an efficacy which corresponds to that of the control, whereas an efficacy of 100% means that no infection is observed.
as §3

Another assay deals with Pyrenophora teres. Briefly: Pyrenophora teres test (barley)/protective. The note with it: protective spray, evaluation 7-9 days after inoculation. On the procedure: Pyrenophora teres Test (Barley)/Protective
as §2, §1
To produce a suitable preparation of active compound, 1 part by weight of active compound is mixed with the stated amounts of solvent and emulsifier, and the concentrate is diluted with water to the desired concentration. To test for protective activity, young plants are sprayed with the preparation of active compound at the stated application rate. 1 day after this treatment, the plants are inoculated with an aqueous spore suspension of Pyrenophora teres. The plants remain in an incubation cabin at 20° C. and 100% relative atmospheric humidity for 48 hours. The plants are placed in a greenhouse at a temperature of about 20° C. and a relative atmospheric humidity of about 80%. Evaluation is carried out 7-9 days after the inoculation. 0% means an efficacy which corresponds to that of the control, whereas an efficacy of 100% means that no infection is observed.

For `CC1(C(O)(COc2ccc(OC(F)(F)F)cc2)c2cncnc2)CC1` (stereo not shown) [Compound 18], the values for the pest or weed control at 500 ppm (with Leptosphaeria nodorum; in the assay with Puccinia triticina; in assay [1]) were 95%, 100% and 100%, respectively.

On to `CC(C)(C)C(O)(COc1ccc(OC(F)(F)F)cc1)c1cncnc1` (stereo not shown) [Compound 12], for which the pest or weed control at 500 ppm in the assay with Leptosphaeria nodorum turned out to be 95%; in the assay with Puccinia triticina, 100%; in assay [1] it was 100%. The “Efficacy (%)” value with Pyrenophora teres (100 ppm) came to 60%; in the assay with Pyrenophora teres (500 ppm), 95%.

Regarding `CC(C)(C)C(O)(COc1ccc(SC(F)(F)F)cc1)c1cncnc1` (stereo not shown) [Compound 17], the figures for the pest or weed control at 500 ppm (with Leptosphaeria nodorum; with Puccinia triticina; in assay [1]) were 94%, 100% and 100%, respectively.

For the compound `CC(C)C(O)(COc1ccc(OC(F)(F)F)cc1)c1cncnc1` (stereo not shown) [Compound 2], the pest or weed control at 500 ppm (with Leptosphaeria nodorum; with Puccinia triticina; in assay [1]) was 100% in each case. The “Efficacy (%)” value in the assay on Pyrenophora teres (100 ppm) and in the assay on Pyrenophora teres (500 ppm) was 0% each time.
